Assay results published in patent US20230303557A1, “CRYSTALLINE FORM OF TLR8 AGONIST” (CHIA TAI TIANQING PHARMACEUTICAL GROUP CO., LTD., priority 2020, published 2023).
pEC50: −log10 of the molar value. Counter-ions that a name gives are not always drawn.

Key:
[1] = Accelerated stability testing (40±2° C./75±5% RH); format: physicochemical
Procedure: Inner packaging: a double-layer medical low-density polyethylene bag; outer packaging: an aluminum foil bag.
Test conditions: 40±2° C./75±5% RH.

[2] = High-humidity (25° C./92.5 RH) stability testing; format: physicochemical; conditions: for Appearance / Content / Enantiomer / Total impurity content / Water: 25° C./92.5RH
Procedure: 3) Testing for the Effect of Humidity
Each sample was placed in an open low-form weighing bottle and tested under high-humidity conditions (25° C./92.5 RH).

[3] = High-temperature (60° C.) stability testing; format: physicochemical
Procedure: 2) Testing for the Effect of Temperature
Each sample was placed on an open watch glass and tested under high-temperature conditions (60° C.).

[4] = Photostability testing; format: physicochemical; conditions: for Appearance / Content / Enantiomer / Total impurity content / Water: photostability
Description: 1) Photostability Testing
Two test samples (one as a 5-day test sample, the other as a 10-day test sample) and two controls (one as a 5-day control, the other as a 10-day control) were used. The test samples were spread as thin layers on clean watch glasses and covered with quartz glass covers. The controls were packaged in the same manner as the test samples except that the watch glasses were covered with aluminum film.
Test conditions: a photostability tester.

[5] = biological target: human TLR7 (Homo sapiens (Human), UniProt Q9NYK1); assay: HEK-Blue hTLR7 SEAP reporter agonist assay; format: cell-based; conditions: HEK-Blue hTLR7 cells, 24 hours, SEAP OD650
human TLR7, sequence (Q9NYK1 27-1049): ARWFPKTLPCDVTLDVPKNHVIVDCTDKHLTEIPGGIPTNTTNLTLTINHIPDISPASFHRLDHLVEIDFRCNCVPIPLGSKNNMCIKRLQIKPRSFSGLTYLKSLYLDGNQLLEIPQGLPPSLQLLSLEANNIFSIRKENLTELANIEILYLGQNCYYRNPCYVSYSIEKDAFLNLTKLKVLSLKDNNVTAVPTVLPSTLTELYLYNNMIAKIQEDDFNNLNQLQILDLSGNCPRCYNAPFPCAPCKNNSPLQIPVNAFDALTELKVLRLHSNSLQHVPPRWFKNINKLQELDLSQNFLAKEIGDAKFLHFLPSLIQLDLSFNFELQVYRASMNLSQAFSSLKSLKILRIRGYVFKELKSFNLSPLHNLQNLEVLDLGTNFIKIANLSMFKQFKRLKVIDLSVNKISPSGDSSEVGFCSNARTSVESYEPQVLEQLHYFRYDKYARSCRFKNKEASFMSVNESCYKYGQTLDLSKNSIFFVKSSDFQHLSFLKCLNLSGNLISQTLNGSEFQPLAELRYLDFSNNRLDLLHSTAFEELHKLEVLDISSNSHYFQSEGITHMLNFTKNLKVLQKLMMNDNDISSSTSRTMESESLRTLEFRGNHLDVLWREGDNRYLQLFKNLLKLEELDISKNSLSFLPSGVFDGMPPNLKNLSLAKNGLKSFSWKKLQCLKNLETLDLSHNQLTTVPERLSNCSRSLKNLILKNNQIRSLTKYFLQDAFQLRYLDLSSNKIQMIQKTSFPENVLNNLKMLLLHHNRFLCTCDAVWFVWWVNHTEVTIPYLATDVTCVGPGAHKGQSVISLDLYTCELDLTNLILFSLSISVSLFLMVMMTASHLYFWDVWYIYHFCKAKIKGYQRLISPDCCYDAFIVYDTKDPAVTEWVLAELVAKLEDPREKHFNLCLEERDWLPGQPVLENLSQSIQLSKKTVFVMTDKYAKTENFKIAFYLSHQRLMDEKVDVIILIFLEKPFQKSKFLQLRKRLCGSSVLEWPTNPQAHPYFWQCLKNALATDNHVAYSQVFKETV
Description: (§1) Experimental Example 1: Screening for In Vitro Receptor Binding Activity of Human Toll-Like Receptor 7 (TLR7) and Human Toll-Like Receptor 8 (TLR8)
(§2) The HEK-Blue™ hTLR7 (catalog No.: hkb-htlr7) and HEK-Blue™ hTLR8 (catalog No.: hkb-htlr8) cell lines used in this experiment were purchased from InvivoGen. The two cell lines were constructed by a human embryonic kidney 293 cell line stably co-transfecting hTLR7 or hTLR8 and inducing expression of Secreted Alkaline Phosphatase (SEAP) reporter gene, wherein SEAP reporter gene was regulated by an IFN-β promoter. […]
(§3) 2. […] The cells were counted and the cell suspension was adjusted to 500,000 cells/mL with the culture medium. […]
(§4) 4. Activity assay on the compound: 20 µL of the induced cell supernatant from each well was added to a cell culture plate containing 180 µL of QUANTI-Blue™ reagent, and after incubation at 37° C. for 1 hour, the optical density absorbance at 650 nm (OD650) was assayed for each well using a multi-functional microplate reader.
(§5) 5. Activity assay on the cells: luciferase signal (RLU) was detected using a multi-functional microplate reader as per the process described in the instructions of ATPlite 1 Step.
(§6) 6. Data analysis: compound activity: OD650 values were analyzed using a GraphPad Prism software and the dose-response curves of the compound were fitted to calculate EC50 values (half maximal effect concentration) for the compound.

[6] = biological target: human TLR8 (Homo sapiens (Human), UniProt Q9NR97); assay: HEK-Blue hTLR8 SEAP reporter agonist assay; format: cell-based; conditions: HEK-Blue hTLR8 cells, 24 hours, SEAP OD650
human TLR8, sequence (Q9NR97 27-1041): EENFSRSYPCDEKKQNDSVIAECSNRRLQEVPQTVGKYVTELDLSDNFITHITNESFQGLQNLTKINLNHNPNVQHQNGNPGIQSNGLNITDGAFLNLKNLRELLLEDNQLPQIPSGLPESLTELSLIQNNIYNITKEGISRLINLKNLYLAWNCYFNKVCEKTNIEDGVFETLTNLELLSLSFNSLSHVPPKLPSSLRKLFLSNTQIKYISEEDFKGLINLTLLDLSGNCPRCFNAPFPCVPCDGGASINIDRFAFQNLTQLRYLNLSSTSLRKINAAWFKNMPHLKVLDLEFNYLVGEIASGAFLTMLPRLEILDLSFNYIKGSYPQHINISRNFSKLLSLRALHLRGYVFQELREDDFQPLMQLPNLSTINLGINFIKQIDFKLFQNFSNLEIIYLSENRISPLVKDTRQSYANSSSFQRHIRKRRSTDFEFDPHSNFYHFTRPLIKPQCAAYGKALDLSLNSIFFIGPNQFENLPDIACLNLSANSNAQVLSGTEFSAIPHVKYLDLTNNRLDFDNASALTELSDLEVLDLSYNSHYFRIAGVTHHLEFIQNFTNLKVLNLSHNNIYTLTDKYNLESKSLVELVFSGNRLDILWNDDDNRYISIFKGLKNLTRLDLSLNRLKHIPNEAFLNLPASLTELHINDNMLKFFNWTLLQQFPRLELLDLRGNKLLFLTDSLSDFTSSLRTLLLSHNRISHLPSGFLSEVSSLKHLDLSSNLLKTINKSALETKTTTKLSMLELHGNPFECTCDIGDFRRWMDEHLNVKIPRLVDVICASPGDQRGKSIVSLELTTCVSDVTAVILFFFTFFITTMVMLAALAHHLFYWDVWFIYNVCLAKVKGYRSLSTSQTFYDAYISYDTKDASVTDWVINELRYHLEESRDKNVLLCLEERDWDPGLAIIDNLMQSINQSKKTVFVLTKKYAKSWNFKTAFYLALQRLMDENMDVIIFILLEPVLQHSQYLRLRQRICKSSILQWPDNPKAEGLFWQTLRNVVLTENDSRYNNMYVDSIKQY
Description: as §1, §2, §3, §4, §5, §6

[7] = Pharmacokinetic study in mice; format: in vivo; conditions: mouse, plasma
Procedure: Experimental Example 3: Pharmacokinetic Study in Mice
This experiment was intended to evaluate the pharmacokinetic behavior of the compound after a single intravenous injection or intragastric administration in mice.
The concentration of the test compound in plasma was determined by high performance liquid chromatography-tandem mass spectrometry (LC-MS/MS). The retention times of the compound and internal standard, chromatogram acquisitions and integrals of chromatograms were processed using the software Analyst (Applied Biosystems), and the data statistics were processed using the software Watson LIMS (Thermo Fisher Scientific) or Analyst (Applied Biosystems).
The plasma concentrations were processed using a non-compartmental model of WinNonlin™ Version 6.3 (Pharsight, Mountain View, CA), a pharmacokinetic software, and the pharmacokinetic parameters were calculated using a linear-log trapezoidal method.
The related pharmacokinetic parameters in the mice at 1 mg/Kg intravenous injection and 5 mg/Kg oral intragastric administration of the hydrochloride of the compound of formula (I) are shown in Table 4 below.

[8] = Day 5, control group (aluminum film)
[9] = Day 10, control group (aluminum film)
[10] = oral intragastric administration 5 mg/Kg

## CCCC[C@](C)(Cc1ncn[nH]1)Nc1nc(N)nc2cnccc12
[1]; Month 1
  Appearance: Off-white powder
  Content: 98.9%
  Total impurity content: <0.05%
  Water: 0.30%
[1]; Month 2
  Appearance: Off-white powder
  Content: 99.5%
  Total impurity content: <0.05%
  Water: 0.31%
[1]; Month 3
  Appearance: Off-white powder
  Content: 98.8%
  Enantiomer: 0.32%
  Stability under accelerated conditions (conclusion, XRPD): stays stable under accelerated conditions
  Total impurity content: <0.05%
  Water: 0.28%
  XRPD: Crystal form A
[1]; Month 6
  Appearance: Off-white powder
  Content: 99.3%
  Enantiomer: 0.34%
  Total impurity content: <0.05%
  Water: 0.34%
[1]; initial value
  Appearance: Off-white powder
  Content: 98.3%
  Enantiomer: 0.34%
  Total impurity content: <0.05%
  Water: 0.19%
  XRPD: Crystal form A
[2]; 25° C./92.5 RH, 5-day, 10-day and 30-day
  High-humidity stability (conclusion): good high-humidity stability
[2]; Day 5
  Appearance: Off-white powder
  Content: 98.8%
  Enantiomer: 0.35%
  Total impurity content: <0.05%
  Water: 0.29%
[2]; Day 10
  Appearance: Off-white powder
  Content: 99.4%
  Enantiomer: 0.35%
  Total impurity content: <0.05%
  Water: 0.29%
[2]; Day 30
  Appearance: Off-white powder
  Content: 98.7%
  Enantiomer: 0.35%
  Total impurity content: <0.05%
  Water: 0.30%
[2]; initial value
  Appearance: Off-white powder
  Content: 98.3%
  Enantiomer: 0.34%
  Total impurity content: <0.05%
  Water: 0.19%
[3]; 5-day, 10-day and 30-day
  High-temperature stability (conclusion): good high-temperature stability
[3]; Day 5
  Appearance: Off-white powder
  Content: 99.1%
  Enantiomer: 0.35%
  Total impurity content: <0.05%
  Water: 0.25%
[3]; Day 10
  Appearance: Off-white powder
  Content: 99.0%
  Enantiomer: 0.37%
  Total impurity content: <0.05%
  Water: 0.24%
[3]; Day 30
  Appearance: Off-white powder
  Content: 98.2%
  Enantiomer: 0.34%
  Total impurity content: <0.05%
  Water: 0.26%
[3]; initial value
  Appearance: Off-white powder
  Content: 98.3%
  Enantiomer: 0.34%
  Total impurity content: <0.05%
  Water: 0.19%
[4]; lighting conditions, 5-day and 10-day
  Photostability (conclusion): good photostability
[4]; [8]
  Appearance: Off-white powder
  Content: 98.7%
  Enantiomer: 0.35%
  Total impurity content: <0.05%
  Water: 0.25%
[4]; Day 5, test group
  Appearance: Off-white powder
  Content: 98.8%
  Enantiomer: 0.34%
  Total impurity content: <0.05%
  Water: 0.24%
[4]; [9]
  Appearance: Off-white powder
  Content: 99.1%
  Enantiomer: 0.36%
  Total impurity content: <0.05%
  Water: 0.25%
[4]; Day 10, test group
  Appearance: Off-white powder
  Content: 98.6%
  Enantiomer: 0.34%
  Total impurity content: <0.05%
  Water: 0.25%
[4]; initial value
  Appearance: Off-white powder
  Content: 98.3%
  Enantiomer: 0.34%
  Total impurity content: <0.05%
  Water: 0.19%

## CCCC[C@](C)(Cc1ncn[nH]1)Nc1nc(N)nc2cnccc12 [Hydrochloride of compound of formula (I)]
[5]
  pEC50: 4.48
[6]
  pEC50: 8.52
[7]; 5 mg/Kg oral vs 1 mg/Kg intravenous, read-out: Bioavailability (F%)
  bioavailability: 27.7%
[7]; intravenous injection 1 mg/Kg
  AUC(0-t): 0.45 µM·h
  clearance: 90.2 mL/min/kg
[7]; intravenous injection 1 mg/Kg, read-out: Vdss
  Vd: 1.75 L/kg
[7]; intravenous injection 1 mg/Kg, read-out: t½ (converted)
  half-life: 15 min
[7]; [10]
  AUC(0-t): 0.624 µM·h
  Cmax: 421 nM
  Tmax: 30 min
